Patent US9878984B2, “Anti-cancer compounds” (NORTHWESTERN UNIVERSITY, priority 2008, dated 2018)

System: Chk2
Assay: DNA damage response assay (pThr68-Chk2 / total Chk2 western blot)
Type: cell-based, human
Conditions: HeLa cells, [GI99%], 20 hr, normalized to mitoxantrone
Description: DNA Damage Response Assay: 250,000 HeLa cells were plated in 35 mm culture dishes and allowed to attach for 8 hr and were then treated with the [GI99%] of each compound for 20 hr (total media volume was […] with 1% DMSO). After treatment cells were lysed in 150 μL detergent buffer containing 1:100 v/v protease inhibitor cocktail (Sigma—St. Louis, Mo.). Lysates were run on denaturing 12% acrylamide gels and transferred to nitrocellulose membranes. The membranes were blocked in blotto, incubated in anti-pThr68-Chk2 antibody (Cell Signaling—Danvers, Mass.) at 1:500 v/v dilution in blotto overnight 4° C., washed, incubated in HRP conjugated anti-rabbit secondary antibody (Jackson) at 1:5,000 v/v dilution in blotto for 1 hr, and then developed. The membranes were then stripped with a reducing buffer, blocked in blotto, incubated in anti-Chk2 antibody (Biolegend—San Diego, Calif.) at 1:500 v/v dilution in blotto overnight at 4° C., washed, incubated in HRP conjugated anti-mouse secondary antibody (Jackson) at 1:5,000 v/v dilution in blotto for 1 hr, and then developed. Membranes were developed with PicoWest Developing Solution (Pierce) and exposed to film. The intensities of bands were quantified as described in the previous section. The data are expressed as the average ratio of pThr68-Chk2 to total Chk2 as normalized to the mitoxantrone control in each of three independent experiments.
Topoisomerase inhibition by most mechanisms should cause activation of DNA damage response pathways because of the production of single and double strand DNA breaks, as is the case with amonafide. […] Therefore, measuring the DNA damage response at a fixed cytotoxic dose ([GI99%]) will determine the extent that DNA damage contributes to the cytotoxicity of these compounds. […] Activation of Chk2 was determined by measuring the ratio of pThr68-Chk2 to total Chk2 in HeLa cells treated with the [GI99%].

CN(C)CCN1C(=O)c2cccc3cc(N)cc(c23)C1=O [amonafide, reference compound]
DNA damage response (ratio of pThr68-Chk2 to total Chk2): evoked the strongest DNA damage response
